PMC8217340 (Phytotherapy research : PTR, 2021)
Where two headings read alike, the source gives them in different places.

Key:
human OATP1B1 [1] = molecular target: T1, human OATP1B1 (Homo sapiens, UniProt Q9Y6L6); type: cell-based; conditions: 5 μM flavonolignan, 5 minutes; uptake minus wild-type CHO cells
T1 sequence (Q9Y6L6 1-691): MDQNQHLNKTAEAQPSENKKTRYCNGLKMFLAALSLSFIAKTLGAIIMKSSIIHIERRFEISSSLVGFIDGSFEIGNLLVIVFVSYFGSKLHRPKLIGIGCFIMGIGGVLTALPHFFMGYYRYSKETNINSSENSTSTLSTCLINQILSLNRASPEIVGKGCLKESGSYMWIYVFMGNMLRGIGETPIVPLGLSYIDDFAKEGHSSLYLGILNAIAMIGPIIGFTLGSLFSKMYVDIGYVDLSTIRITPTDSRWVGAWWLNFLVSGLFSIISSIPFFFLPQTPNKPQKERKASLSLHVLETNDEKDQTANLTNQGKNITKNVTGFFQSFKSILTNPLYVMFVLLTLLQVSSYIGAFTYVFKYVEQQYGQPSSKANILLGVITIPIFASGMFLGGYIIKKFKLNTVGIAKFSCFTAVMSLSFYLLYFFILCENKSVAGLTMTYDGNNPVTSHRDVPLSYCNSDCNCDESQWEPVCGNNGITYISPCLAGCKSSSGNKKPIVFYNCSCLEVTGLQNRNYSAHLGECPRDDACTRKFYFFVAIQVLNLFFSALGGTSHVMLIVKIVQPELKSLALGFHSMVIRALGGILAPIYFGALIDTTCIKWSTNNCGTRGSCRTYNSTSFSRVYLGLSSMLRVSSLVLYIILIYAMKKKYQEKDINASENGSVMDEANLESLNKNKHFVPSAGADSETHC

human OATP1B3 [2] = molecular target: T2, human OATP1B3 (Homo sapiens, UniProt Q9NPD5); type: cell-based; conditions: 5 μM flavonolignan, 5 minutes; uptake minus wild-type CHO cells
T2 sequence (Q9NPD5 1-702): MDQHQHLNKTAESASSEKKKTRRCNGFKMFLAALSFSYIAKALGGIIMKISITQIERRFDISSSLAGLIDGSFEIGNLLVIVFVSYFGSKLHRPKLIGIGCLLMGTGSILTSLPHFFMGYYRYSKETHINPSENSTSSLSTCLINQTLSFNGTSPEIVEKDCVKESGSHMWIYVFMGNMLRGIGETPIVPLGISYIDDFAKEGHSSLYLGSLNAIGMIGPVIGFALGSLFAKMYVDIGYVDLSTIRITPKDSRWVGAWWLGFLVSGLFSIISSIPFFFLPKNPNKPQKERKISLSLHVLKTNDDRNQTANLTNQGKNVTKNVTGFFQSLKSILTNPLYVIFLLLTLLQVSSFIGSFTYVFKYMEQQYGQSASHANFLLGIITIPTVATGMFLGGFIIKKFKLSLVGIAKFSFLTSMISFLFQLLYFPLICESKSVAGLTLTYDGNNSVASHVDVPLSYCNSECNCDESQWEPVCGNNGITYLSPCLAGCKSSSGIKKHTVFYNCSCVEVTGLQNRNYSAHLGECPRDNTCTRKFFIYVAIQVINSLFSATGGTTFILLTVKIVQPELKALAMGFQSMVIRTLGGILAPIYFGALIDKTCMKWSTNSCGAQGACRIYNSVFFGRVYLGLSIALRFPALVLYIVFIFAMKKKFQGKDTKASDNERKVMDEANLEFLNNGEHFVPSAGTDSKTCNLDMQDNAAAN

human OATP2B1 = molecular target: T3, human OATP2B1 (Homo sapiens, UniProt O94956); type: cell-based; conditions: 5 μM flavonolignan, 5 minutes; for substrate for OATP2B1: uptake minus wild-type CHO cells
T3 sequence (O94956 1-709): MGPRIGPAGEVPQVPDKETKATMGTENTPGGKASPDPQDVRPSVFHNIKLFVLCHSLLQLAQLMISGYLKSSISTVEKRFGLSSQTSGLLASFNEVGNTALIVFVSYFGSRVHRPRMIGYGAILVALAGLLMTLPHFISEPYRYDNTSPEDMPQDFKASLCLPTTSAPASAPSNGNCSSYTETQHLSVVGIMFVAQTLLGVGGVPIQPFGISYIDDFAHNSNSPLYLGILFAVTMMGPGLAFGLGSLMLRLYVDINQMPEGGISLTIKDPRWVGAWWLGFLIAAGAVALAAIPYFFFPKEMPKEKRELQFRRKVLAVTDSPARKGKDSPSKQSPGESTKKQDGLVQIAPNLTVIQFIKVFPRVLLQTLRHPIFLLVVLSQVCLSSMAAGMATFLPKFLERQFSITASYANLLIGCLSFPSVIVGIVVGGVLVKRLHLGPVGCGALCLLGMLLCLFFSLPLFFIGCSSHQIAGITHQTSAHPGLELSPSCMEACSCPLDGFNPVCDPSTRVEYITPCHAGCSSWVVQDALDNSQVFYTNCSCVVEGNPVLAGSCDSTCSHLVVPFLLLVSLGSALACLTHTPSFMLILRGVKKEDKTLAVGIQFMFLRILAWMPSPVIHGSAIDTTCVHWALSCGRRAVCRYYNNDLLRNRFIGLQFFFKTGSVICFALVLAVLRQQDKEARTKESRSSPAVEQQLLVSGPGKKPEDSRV

[3] = type: in vivo, Sprague Dawley rats
[4] = type: in vivo, Sprague Dawley rats; conditions: 27 hours after pitavastatin gavage
[5] = read-out: average Cmax; NAFLD and HCV patients; ref Fried, 2012; Wah Kheong et al., 2017; cited from earlier work
[6] = for Cmax: NASH animals, silymarin 500 mg/kg oral gavage, plasma, geometric mean (90% CI)
UGT2B7 = conditions: ref Uchaipichat, 2018; cited from earlier work
human OATP1B1 [7] = molecular target: T1, human OATP1B1; type: cell-based
human OATP1B3 [8] = molecular target: T2, human OATP1B3; type: cell-based
[9] = human, in vivo; cited from earlier work
[10] = in vivo; cited from earlier work

## COc1cc([C@H]2Oc3ccc([C@H]4Oc5cc(O)cc(O)c5C(=O)[C@@H]4O)cc3O[C@@H]2CO)ccc1O [IA, isosilybin A]
Human OATP1B1 [1]
  substrate for OATP1B1: substrates
Human OATP1B3 [2]
  substrate for OATP1B3: substrates
Human OATP2B1
  substrate for OATP2B1: substrates

## COc1cc([C@@H]2Oc3ccc([C@H]4Oc5cc(O)cc(O)c5C(=O)[C@@H]4O)cc3O[C@H]2CO)ccc1O [IB, isosilybin B]
Human OATP1B1 [1]
  substrate for OATP1B1: substrates
Human OATP1B3 [2]
  substrate for OATP1B3: substrates
Human OATP2B1
  substrate for OATP2B1: substrates

## O=C(O)C[C@H](O)C[C@H](O)/C=C/c1c(C2CC2)nc2ccccc2c1-c1ccc(F)cc1 [Pitavastatin, Pitavastatin calcium]
[3]; 40-minute offset between pitavastatin and silymarin administration
  silymarin effect on pitavastatin Cmax: no significant silymarin effect
[3]; NASH silymarin group vs NASH vehicle
  increase of pitavastatin AUC0-27h by silymarin: 1.8 fold
[3]; NASH vehicle compared to control vehicle
  increase of pitavastatin AUC0-27h by NASH alone: 2.9 fold
[3]; compared to the control vehicle group
  increase of pitavastatin AUC0-27h by the combination of silymarin and NASH: 5.1 fold
[3]; control silymarin group vs control vehicle
  increase of pitavastatin AUC0-27h by silymarin: 1.8 fold
[3]; in the absence of silymarin
  increase of pitavastatin Cmax by NASH compared to control: 3.9 fold
[3]; in the presence of silymarin
  increase of pitavastatin Cmax by NASH compared to control: 2.8 fold
[4]
  liver pitavastatin content, NASH vs control groups: not different
  liver to plasma ratio in the NASH group: decreased

## COc1cc([C@H]2Oc3cc([C@H]4Oc5cc(O)cc(O)c5C(=O)[C@@H]4O)ccc3O[C@@H]2CO)ccc1O [SA, silybin A]
Human OATP1B1 [1]
  substrate for OATP1B1: substrates
Human OATP1B3 [2]
  substrate for OATP1B3: substrates
Human OATP2B1
  substrate for OATP2B1: substrates
[5]
  Cmax: 0.8 to 4.2 µM
[6]; oral silymarin 500 mg/kg
  plasma AUC of SA relative to that of SC: 110 times

## COc1cc([C@@H]2Oc3cc([C@H]4Oc5cc(O)cc(O)c5C(=O)[C@@H]4O)ccc3O[C@H]2CO)ccc1O [SB, silybin B]
Human OATP1B1 [1]
  substrate for OATP1B1: substrates
Human OATP1B3 [2]
  substrate for OATP1B3: substrates
Human OATP2B1
  substrate for OATP2B1: substrates

## COc1cc([C@@H]2Oc3c(O)cc([C@H]4Oc5cc(O)cc(O)c5C(=O)[C@@H]4O)cc3[C@H]2CO)ccc1O [SC, silychristin]
Human OATP1B1 [1]
  substrate for OATP1B1: substrates
Human OATP1B3 [2]
  substrate for OATP1B3: substrates
Human OATP2B1
  transport activity of OATP2B1 compared to SA: lower transport activity
  substrate for OATP2B1: substrates

## COc1cc([C@@H]2[C@H]3CO[C@@]4(O)C(=O)[C@@H]2C=C([C@H]2Oc5cc(O)cc(O)c5C(=O)[C@@H]2O)[C@@H]34)ccc1O [SD, silydianin]
Human OATP1B1 [1]
  substrate for OATP1B1: substrates
Human OATP1B3 [2]
  substrate for OATP1B3: substrates
Human OATP2B1
  substrate for OATP2B1: substrates

## COc1cc(C2Oc3cc([C@H]4Oc5cc(O)cc(O)c5C(=O)[C@@H]4O)ccc3OC2CO)ccc1O (stereo partly shown) [silybin]
UGT2B7
  concentrations at which inhibition of UGT2B7 occurs: 0.60 to 1.5 mM

## silybin A-4”-O-β-D-glucuronide [S4G]
[6]
  Cmax: 12.6 µM

## silybin A-7-O-β-D-glucuronide [S7G]
[6]
  Cmax: 12.6 µM

## silymarin
Human OATP1B1 [7]
  leftward shift in IC50 for OATP1B1: 2.8 fold
Human OATP1B3 [8]
  leftward shift in IC50 for OATP1B3: 1.7 fold
[9]
  adverse events: no adverse events
[10]
  safety of the dose: safe
